The source made the active and inactive calls.
Tests used:
[1] = Luminescence Cell-Based Dose Retest to Confirm Inhibitors of Cancer Stem Cells. [Related pubchem assays (depositor defined):AID2717, AID2721]; format: functional; conditions: Homo sapiens
Vero [2] = assay: host cell viability loss, Vero E6 – synthesized analogs, cytotoxicity control for West Nile virus antiviral project, SAR follow-up (AID 2244); format: functional; conditions: Chlorocebus sabaeus
Vero [3] = assay: inhibition of WNV-induced cytopathic effect – cell-based, CPE readout (AID 1621); format: functional; conditions: Chlorocebus sabaeus
Vero [4] = assay: antiviral protection of cells from WNV – synthesized analogs, SAR follow-up (AID 2238); format: functional, cell-based; conditions: Chlorocebus sabaeus
[5] = biological target: T1, Short transient receptor potential channel 4 (Mus musculus, UniProt Q9QUQ5); assay: potentiation of DAMGO-evoked TRPC4 calcium signal – cell-based, HEK293 TRPC4/mu-opioid, Fluo-4 calcium, EC20 DAMGO, dose response (AID 434941); format: functional
T1 sequence (Q9QUQ5 whole entry): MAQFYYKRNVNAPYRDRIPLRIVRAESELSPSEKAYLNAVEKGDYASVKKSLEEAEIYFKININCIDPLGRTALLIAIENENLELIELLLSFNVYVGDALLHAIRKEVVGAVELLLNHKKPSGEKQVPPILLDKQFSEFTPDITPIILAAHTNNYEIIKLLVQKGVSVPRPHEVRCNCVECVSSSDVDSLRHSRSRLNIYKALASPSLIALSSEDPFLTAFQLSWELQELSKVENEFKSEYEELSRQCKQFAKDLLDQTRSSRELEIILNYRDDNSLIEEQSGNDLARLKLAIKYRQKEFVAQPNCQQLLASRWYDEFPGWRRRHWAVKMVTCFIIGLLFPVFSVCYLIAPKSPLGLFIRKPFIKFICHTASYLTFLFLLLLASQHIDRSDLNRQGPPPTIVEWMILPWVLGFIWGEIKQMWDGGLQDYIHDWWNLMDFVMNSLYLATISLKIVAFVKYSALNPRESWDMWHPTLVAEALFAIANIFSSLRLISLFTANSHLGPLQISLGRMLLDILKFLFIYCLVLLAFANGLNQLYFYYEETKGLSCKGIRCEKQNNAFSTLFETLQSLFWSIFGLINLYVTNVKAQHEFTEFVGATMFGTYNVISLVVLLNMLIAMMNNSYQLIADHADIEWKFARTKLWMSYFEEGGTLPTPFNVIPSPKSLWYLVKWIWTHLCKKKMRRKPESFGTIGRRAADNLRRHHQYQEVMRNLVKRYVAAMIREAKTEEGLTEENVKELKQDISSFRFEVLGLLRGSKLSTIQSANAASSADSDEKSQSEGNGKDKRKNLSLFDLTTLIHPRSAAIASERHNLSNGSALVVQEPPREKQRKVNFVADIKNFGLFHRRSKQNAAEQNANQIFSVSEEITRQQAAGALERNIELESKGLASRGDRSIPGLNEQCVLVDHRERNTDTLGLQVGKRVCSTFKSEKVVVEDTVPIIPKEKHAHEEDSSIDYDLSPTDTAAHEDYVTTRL

Hexokinase = Hexokinase (Trypanosoma brucei, UniProt Q38C41); assay: Confirmation assay for inhibitors of Trypanosoma brucei hexokinase 1-Analogue-first series. [Related pubchem assays (depositor defined):AID1430, AID1632, AID2516, AID2560, AID2579, AID2600, AID449725, AID492951]; format: functional
Hexokinase-1 = Hexokinase-1 (Homo sapiens, UniProt P19367); assay: HK1 enzyme activation by HKDC1 hits – biochemical, selectivity assay for HKDC1 activator project, dose response (AID 504762); format: functional
Hexokinase HKDC1 = biological target: T2, Hexokinase HKDC1 (Homo sapiens, UniProt Q2TB90); assay: inhibition of HKDC1 glucose phosphorylation – biochemical, W721R variant, dose response (AID 504729); format: functional
T2 sequence (Q2TB90 whole entry): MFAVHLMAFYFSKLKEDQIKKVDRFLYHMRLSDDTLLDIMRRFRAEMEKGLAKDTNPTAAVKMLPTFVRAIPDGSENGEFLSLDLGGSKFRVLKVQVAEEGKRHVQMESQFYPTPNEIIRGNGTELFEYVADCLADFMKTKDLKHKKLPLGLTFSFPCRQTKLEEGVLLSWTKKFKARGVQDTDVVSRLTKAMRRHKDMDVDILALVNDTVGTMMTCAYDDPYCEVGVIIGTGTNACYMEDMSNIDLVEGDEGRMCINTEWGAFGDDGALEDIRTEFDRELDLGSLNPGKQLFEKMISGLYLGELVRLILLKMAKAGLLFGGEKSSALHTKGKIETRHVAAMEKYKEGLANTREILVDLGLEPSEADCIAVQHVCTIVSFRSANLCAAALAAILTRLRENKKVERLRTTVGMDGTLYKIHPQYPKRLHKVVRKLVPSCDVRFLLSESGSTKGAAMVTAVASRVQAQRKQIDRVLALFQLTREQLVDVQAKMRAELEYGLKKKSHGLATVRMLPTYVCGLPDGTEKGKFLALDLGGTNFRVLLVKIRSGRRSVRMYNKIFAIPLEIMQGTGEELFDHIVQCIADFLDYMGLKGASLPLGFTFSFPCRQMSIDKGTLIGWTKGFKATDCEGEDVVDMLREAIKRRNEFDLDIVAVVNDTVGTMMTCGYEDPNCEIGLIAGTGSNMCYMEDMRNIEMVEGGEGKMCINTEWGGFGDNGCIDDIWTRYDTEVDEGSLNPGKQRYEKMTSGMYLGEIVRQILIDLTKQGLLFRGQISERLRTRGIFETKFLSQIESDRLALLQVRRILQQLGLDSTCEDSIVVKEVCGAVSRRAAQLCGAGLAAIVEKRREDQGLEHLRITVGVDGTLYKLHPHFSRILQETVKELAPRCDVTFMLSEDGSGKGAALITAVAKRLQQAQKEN

Streptococcus = assay: GAS UMAA2166 growth inhibition – luminescence, BacTiterGlo, counter-screen for streptokinase expression inhibitor project, dose response (AID 1915); format: functional, organism-based;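 further: potency for reduction of bacterial viability or growth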
Fatty acid synthase [6] = biological target: T3, Fatty acid synthase (Homo sapiens, UniProt P49327); assay: inhibition of human FAS-TE enzyme activity – biochemical, endpoint fluorescence intensity, uHTS hits, dose response (AID 624327); format: functional;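 further: fluorescence from hydrolysis of an O-methyl fluorescein acyl ester substrate by the enzyme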
[7] = biological target: Bifunctional protein GlmU (Mycobacterium tuberculosis, UniProt P9WMN3); assay: Inhibitors of Mycobacterial Glucosamine-1-phosphate acetyl transferase (GlmU). Secondary screen.; parameters: species or system Mycobacterium tuberculosis H37Rv
[8] = biological target: Envelope glycoprotein gp160 (Human immunodeficiency virus 1, UniProt Q6QLK5); assay: cell-free HIV fusion peptide-binding blockers – biochemical, uHTS, fluorescence dequenching, […] (AID 1986)
[9] = system: Streptococcus sp. 'group A'; assay: Streptococcus pyogenes SK(-)GAS viability under kanamycin – luminescence, BacTiterGlo, confirmation, counter-screen for streptokinase expression inhibitor project, dose response (AID 1900); format: functional, organism-based
Aminopeptidase N = biological target: T4, Aminopeptidase N (Plasmodium falciparum FcB1/Columbia, UniProt O96935); assay: malaria alanyl aminopeptidase activity blockers – biochemical, fluorogenic H-Leu-NHMec substrate, 1536-well (AID 1445); parameters: species or system Plasmodium falciparum 3D7, 3D7
T4 sequence (O96935 whole entry): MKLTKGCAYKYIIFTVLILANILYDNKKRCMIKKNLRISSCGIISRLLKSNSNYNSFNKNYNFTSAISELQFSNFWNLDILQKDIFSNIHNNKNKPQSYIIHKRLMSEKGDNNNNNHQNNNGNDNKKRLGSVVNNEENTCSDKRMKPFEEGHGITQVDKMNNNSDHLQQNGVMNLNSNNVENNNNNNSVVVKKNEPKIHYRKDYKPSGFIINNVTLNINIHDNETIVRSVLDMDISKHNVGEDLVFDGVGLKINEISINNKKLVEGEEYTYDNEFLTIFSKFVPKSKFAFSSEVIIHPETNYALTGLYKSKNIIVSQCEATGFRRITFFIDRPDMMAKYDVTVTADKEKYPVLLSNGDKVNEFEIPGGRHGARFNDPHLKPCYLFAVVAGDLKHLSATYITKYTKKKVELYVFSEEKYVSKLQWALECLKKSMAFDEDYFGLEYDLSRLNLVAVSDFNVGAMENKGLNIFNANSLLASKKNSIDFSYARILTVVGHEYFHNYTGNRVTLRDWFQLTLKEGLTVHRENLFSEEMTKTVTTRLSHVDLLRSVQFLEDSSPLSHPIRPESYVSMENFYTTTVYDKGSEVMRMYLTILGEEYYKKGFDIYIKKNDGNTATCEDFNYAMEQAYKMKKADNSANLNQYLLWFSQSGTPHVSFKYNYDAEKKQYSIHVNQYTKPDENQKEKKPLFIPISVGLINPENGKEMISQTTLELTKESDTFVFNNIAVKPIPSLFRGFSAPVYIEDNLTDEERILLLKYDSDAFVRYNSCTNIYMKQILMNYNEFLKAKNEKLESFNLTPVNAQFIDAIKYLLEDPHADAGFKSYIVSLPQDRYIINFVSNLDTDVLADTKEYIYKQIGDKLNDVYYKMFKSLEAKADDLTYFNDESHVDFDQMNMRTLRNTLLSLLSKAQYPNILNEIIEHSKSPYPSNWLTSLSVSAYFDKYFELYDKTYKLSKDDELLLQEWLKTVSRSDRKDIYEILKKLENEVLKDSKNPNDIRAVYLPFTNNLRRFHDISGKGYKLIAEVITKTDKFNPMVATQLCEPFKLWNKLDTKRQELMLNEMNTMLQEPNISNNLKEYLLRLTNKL

Fatty acid synthase [10] = biological target: T3, Fatty acid synthase; assay: inhibition of human FAS-TE enzyme activity – biochemical, kinetic fluorescence intensity, dose response (AID 624326); format: functional;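 further: rate of fluorescence rise from hydrolysis of a fluorogenic O-methyl fluorescein ester substrate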
Streptokinase A = biological target: T5, Streptokinase A (Streptococcus pyogenes serotype M1, UniProt P10520); assay: viability-normalized secreted streptokinase activity reduction – plasminogen activation absorbance, OD405, dose response (AID 1914); format: functional, Streptococcus pyogenes M1 GAS;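 further: secreted streptokinase activity via plasminogen activation per viability signal from cell pellet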
T5 sequence (P10520 whole entry): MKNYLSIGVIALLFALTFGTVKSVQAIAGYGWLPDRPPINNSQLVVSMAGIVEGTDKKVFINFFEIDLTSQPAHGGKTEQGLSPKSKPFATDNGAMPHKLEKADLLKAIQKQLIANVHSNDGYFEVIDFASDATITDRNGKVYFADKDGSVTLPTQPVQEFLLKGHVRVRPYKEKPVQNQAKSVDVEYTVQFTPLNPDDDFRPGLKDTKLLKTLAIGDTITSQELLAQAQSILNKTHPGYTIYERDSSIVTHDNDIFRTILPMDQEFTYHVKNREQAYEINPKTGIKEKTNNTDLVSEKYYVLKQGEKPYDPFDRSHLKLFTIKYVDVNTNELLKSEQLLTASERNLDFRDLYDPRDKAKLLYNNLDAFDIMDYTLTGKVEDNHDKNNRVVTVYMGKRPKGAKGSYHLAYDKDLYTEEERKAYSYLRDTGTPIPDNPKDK

[11] = biological target: T6, Calpain-2 catalytic subunit (Sus scrofa, UniProt P43367); assay: m-calpain protease blockers, concentration series – biochemical, fluorogenic peptide substrate, dose response (AID 1420); format: functional
T6 sequence (P43367 whole entry): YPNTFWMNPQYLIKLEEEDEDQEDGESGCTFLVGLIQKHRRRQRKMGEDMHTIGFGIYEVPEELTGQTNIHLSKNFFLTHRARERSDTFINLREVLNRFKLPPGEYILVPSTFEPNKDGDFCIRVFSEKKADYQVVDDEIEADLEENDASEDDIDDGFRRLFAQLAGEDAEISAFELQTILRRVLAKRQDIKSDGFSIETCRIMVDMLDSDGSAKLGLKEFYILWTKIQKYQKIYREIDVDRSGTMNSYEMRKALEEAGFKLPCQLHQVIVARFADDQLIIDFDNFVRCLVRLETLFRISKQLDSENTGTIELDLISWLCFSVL
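Wherever AC50 is given: cells exposed to compound for roughly 70 hours or longer before luminescence read.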

T3 sequence (P49327 whole entry): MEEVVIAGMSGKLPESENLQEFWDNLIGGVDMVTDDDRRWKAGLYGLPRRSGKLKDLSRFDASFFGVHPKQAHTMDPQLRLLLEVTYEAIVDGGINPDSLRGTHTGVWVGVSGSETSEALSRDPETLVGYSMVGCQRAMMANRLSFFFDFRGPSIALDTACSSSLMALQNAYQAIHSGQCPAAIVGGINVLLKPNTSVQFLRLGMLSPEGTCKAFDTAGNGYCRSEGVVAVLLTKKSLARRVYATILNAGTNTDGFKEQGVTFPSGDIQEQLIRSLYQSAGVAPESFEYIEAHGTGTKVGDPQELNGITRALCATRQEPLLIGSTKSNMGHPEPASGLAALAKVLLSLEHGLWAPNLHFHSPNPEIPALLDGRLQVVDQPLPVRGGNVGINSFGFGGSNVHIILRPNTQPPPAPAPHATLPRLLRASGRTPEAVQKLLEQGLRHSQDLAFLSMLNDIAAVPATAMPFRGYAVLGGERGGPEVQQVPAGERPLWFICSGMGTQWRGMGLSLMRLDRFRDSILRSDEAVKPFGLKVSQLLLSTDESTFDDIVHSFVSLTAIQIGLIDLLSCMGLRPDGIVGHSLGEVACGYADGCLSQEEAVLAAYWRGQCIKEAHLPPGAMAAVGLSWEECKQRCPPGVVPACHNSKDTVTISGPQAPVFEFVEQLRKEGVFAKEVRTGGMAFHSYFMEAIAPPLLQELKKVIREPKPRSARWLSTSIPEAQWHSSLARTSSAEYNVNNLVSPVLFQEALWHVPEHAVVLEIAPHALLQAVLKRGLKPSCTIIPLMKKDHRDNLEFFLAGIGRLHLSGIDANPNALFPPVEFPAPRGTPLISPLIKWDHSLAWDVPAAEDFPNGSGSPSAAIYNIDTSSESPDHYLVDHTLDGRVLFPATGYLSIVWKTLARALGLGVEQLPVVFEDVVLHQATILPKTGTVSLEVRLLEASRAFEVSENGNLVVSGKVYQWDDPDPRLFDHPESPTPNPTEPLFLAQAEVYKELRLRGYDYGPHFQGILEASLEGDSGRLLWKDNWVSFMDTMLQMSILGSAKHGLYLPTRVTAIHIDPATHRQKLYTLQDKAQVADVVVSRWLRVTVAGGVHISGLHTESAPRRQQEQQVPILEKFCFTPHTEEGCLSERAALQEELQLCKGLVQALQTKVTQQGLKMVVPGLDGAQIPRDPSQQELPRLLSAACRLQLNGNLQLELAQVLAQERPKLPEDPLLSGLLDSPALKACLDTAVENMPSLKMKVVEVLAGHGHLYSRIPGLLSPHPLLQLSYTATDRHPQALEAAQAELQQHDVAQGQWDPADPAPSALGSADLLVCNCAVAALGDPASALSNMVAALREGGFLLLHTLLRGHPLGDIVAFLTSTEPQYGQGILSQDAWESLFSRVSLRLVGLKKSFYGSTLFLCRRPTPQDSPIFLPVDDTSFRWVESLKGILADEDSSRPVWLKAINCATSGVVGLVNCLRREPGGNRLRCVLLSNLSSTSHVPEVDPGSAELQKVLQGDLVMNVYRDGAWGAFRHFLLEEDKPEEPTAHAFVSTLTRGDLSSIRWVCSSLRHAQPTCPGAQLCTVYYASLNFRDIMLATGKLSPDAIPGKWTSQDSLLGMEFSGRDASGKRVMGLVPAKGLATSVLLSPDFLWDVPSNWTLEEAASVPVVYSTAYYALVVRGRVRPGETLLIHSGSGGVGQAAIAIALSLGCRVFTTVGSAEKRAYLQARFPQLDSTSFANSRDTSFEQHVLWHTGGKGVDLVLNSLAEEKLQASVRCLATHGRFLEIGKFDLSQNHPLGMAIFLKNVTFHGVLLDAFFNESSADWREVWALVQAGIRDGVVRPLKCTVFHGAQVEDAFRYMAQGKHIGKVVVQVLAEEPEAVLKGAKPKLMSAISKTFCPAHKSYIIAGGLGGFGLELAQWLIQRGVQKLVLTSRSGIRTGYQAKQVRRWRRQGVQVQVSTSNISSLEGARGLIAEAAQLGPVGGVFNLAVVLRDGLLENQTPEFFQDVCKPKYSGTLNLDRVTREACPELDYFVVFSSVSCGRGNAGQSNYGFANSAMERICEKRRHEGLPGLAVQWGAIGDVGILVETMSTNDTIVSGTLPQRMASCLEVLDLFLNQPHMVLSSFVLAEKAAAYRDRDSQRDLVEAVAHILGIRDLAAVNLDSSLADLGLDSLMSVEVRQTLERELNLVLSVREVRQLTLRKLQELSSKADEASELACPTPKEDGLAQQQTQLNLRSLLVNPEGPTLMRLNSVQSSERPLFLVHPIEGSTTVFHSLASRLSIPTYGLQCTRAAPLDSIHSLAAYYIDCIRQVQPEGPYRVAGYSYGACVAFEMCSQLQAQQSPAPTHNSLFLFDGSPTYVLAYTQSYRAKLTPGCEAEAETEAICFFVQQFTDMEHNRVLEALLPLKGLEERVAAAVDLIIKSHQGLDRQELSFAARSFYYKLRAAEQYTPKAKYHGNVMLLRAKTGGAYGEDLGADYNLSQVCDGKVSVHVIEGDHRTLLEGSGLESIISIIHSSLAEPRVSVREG
Sequence of Hexokinase (Q38C41 whole entry): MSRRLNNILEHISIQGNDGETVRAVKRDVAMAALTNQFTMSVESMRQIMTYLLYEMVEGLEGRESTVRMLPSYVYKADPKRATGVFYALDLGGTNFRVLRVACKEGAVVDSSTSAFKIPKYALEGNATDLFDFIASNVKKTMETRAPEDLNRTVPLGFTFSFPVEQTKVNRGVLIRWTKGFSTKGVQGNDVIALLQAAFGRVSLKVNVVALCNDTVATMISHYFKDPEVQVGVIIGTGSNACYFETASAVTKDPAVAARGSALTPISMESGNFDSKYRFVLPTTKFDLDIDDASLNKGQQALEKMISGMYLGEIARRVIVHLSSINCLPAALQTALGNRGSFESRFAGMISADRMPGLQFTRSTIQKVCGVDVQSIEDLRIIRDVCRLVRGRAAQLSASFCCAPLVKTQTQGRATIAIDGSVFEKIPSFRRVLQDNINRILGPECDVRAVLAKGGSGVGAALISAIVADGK
Sequence of Bifunctional protein GlmU (P9WMN3 whole entry, the tested form may be a part): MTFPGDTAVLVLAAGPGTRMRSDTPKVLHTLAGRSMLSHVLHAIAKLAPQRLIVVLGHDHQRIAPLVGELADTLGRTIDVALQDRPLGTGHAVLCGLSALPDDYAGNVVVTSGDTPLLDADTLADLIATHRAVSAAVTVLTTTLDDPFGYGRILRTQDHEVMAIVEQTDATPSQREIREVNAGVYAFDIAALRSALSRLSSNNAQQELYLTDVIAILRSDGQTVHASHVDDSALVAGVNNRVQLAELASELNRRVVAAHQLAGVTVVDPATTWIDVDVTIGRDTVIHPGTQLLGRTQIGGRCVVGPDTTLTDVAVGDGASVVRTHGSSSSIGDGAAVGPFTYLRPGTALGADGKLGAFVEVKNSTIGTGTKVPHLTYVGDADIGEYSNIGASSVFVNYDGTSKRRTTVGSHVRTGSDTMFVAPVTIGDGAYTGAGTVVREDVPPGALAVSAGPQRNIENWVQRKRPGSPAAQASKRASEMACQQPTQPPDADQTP
Sequence of Envelope glycoprotein gp160 (Q6QLK5 whole entry, the tested form may be a part): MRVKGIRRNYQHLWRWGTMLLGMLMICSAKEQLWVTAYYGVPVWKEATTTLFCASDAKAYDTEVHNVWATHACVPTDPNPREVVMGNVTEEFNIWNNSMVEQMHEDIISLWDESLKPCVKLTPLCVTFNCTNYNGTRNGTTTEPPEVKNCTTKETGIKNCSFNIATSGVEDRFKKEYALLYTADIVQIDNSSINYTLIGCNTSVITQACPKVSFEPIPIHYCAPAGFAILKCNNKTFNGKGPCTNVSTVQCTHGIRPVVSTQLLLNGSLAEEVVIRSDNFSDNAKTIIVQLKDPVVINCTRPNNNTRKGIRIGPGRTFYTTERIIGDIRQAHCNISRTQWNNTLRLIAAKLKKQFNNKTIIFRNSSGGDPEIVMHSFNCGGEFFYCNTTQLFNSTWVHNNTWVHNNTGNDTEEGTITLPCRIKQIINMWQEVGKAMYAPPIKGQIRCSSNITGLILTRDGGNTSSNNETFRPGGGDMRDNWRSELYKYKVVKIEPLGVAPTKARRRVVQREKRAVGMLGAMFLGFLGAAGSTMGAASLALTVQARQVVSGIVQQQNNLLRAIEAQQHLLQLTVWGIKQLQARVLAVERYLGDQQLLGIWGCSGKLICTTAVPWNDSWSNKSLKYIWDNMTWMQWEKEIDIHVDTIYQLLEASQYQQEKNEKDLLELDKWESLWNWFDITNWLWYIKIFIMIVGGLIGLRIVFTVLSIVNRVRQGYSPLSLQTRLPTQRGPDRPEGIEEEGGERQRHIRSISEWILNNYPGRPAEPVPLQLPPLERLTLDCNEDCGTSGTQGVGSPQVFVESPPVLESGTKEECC

**Q.** Which AC50 [1] does the source give for `CCN(CC)CCCN=C(S)N1CCN(c2nc(-c3ccccc3)cs2)CC1` here?
**A.** 3.77 µM (active)

**Q.** What about the CC50 (Vero [2]) of the same compound?
**A.** 15.3 µM (active)

**Q.** What about the IC50 (Vero [3]) of the same compound?
**A.** > 100 µM (active)

**Q.** And the IC50 (Vero [4])?
**A.** 17.3 µM (active)

**Q.** With `CN(C)CCOc1cc(Cl)cc(Cl)c1` as the compound, how does the EC50 [5] read?
**A.** 0.67 µM (active)

**Q.** For `CC(C)c1ccc(C(=O)Nc2cc(Cl)ccc2C(=O)O)cc1`, which IC50 (Hexokinase) is on record?
**A.** 2.89 µM (active)

**Q.** With `O=C(CN(C(=O)CCC(=O)Nc1ccccn1)c1ccc2c(c1)OCO2)NCc1ccc(F)cc1` as the compound, how does the EC50 (Hexokinase-1) read?
**A.** > 80 µM (inactive)

**Q.** And the IC50 (Hexokinase HKDC1)?
**A.** > 80 µM (inactive)

**Q.** Which results are given for `O=c1c(C(c2ccc([N+](=O)[O-])cc2)c2c(O)oc3ccccc3c2=O)c(O)oc2ccccc12`?
**A.** EC50 (Streptococcus): 102 µM (active); IC50 (Fatty acid synthase [6]): 4.65 µM (active); IC50 [7]: 122 µM (active); IC50 [8]: 13.8 µM (active); EC50 [9]: 8.09 µM (active); IC50 (Aminopeptidase N): 34 µM (active); IC50 (Fatty acid synthase [10]): 3.67 µM (active); EC50 (Streptokinase A): 13.4 µM (active); IC50 [11]: 7.83 µM (active)
